Laboratory results taken from US20110319484A1, “NEUROPROTECTIVE COMPOUNDS” (Parque Tecnologico de Ciencias de la Salud, priority 2009, published 2011).

Tests used:
[1] = tested on: caspase 3/7 activation in SK-N-MC cells; test: Inhibition of camptothecin-induced caspase 3/7 activation (Apo-ONE kit); format: cell-based, human; conditions: Homo sapiens, 24 h pretreatment at 100 μg/ml, then camptothecin 50 μM 6 h
Procedure: To that end, the inhibition caused by (1S,3R,7S,8S,8aR)-1,2,3,7,8,8a-hexahydro-3,7-dimethyl-8-[2-[(2R,4R)-tetrahydro-4-hydroxy-6-oxo-2H-pyran-2-yl]ethyl-1-naphthalenyl 2,2-dimethylpropanoate (NST0005) of apoptosis caused by the treatment with camptothecin (Campt) on the SK-N-MC cells in culture was analyzed following the working conditions specified in section 3.1. Apoptosis can be quantified by measuring effector caspase activation. Caspases (proteins belonging to the cysteine-protease group) mediate the cleavage of a series of proteins triggering the signaling cascade which leads cells to apoptosis. […] The active cellular caspases 3 or 7 cause the cleavage of the substrate, emitting fluorescence which is read by means of a fluorometer.
The effect of the pretreatment of the NST0005 compound at 40 and 100 μg/ml on caspase 3/7 activation caused by 50 μM of camptothecin (Campt) in the SK-N-MC cells was thus analyzed. […]
The cells were incubated (at 37° C. and 5% CO2) with these treatments for 6 h, after which time the lysis buffer and the substrate rhodamine 110 were added at the concentrations specified by the manufacturer; they were incubated at room temperature for 30 minutes and the cells were then frozen at −20° C. overnight. They were thawed the next day and the reading of the plate was taken in a fluorometer at 499 nm for excitation and 521 nm for emission.

[2] = tested on: human neuroblastoma SK-N-MC cells; test: Inhibition of ROS production induced by xanthine/xanthine oxidase (H2DCFDA probe, LDH-normalized); format: cell-based; conditions: XXO 10 μM-100 mU/ml, 3 h, at 10 μg/ml, inhibition observed at 10 and 20 μg/ml, read-out: maximum inhibition of ROS production relating to XXO
Procedure: The assay was performed on human neuroblastoma SK-N-MC cells in culture from the American Type Culture Collection (ATCC) (HTB-10), in all cases strict rules of sterility were followed and the manipulation was performed in class II biological safety cabinets following European standard EN 12469. The cells were maintained in Minimum Essential Medium Eagle (MEM) culture medium supplemented with 1 mM sodium pyruvate, 2 mM L-glutamine, 0.1 mM non-essential amino acids, 0.05 mg/ml gentamicin and 10% fetal bovine serum.
The inhibition by the NST0003 compound [(1S,3R,7S,8S,8aR)-1,2,3,7,8,8a-hexahydro-3,7-dimethyl-8-[2-[(2R,4R)-tetrahydro-4-hydroxy-6-oxo-2H-pyran-2-yl]ethyl-1-naphthalenyl propanoate] on the production of reactive oxygen species (ROS) in the SK-N-MC cells, was analyzed. […]
The cells were incubated (at 37° C. and 5% CO2) with these treatments for 3 h, after which time they were washed with HKRB buffer (20 mM HEPES, 103 mM NaCl, 4.77 mM KCl, 0.5 mM CaCl2, 1.2 mM MgCl2, 1.2 mM KH2PO4, 25 mM […], 15 mM glucose; at pH 7.3) after which the 2′,7′-dichlorodihydrofluorescein diacetate (H2DCFDA) probe was added at 30 μM diluted in HKRB buffer and it was incubated for another 2 hours in the same conditions. The reading of the plate was taken in a fluorometer at the conditions of 485 nm for excitation and 538 nm for emission. […]

SMILES	inhibition at 100 µg/mL [1]	inhibition at 10 µg/mL [2]
C[C@H]1C=C2C=C[C@H](C)[C@H](CC[C@@H]3C[C@@H](O)CC(=O)O3)[C@H]2[C@@H](OC(=O)C(C)(C)C)C1 [NST0005]	33%	
CCC(=O)O[C@H]1C[C@@H](C)C=C2C=C[C@H](C)[C@H](CC[C@@H]3C[C@@H](O)CC(=O)O3)[C@H]21 [NST0003, (1S,3R,7S,8S,8aR)-1,2,3,7,8,8a-hexahydro-3,7-dimethyl-8-[2-[(2R,4R)-tetrahydro-4-hydroxy-6-oxo-2H-pyran-2-yl]ethyl-1-naphthalenyl propanoate]		33%
